ChEMBL document CHEMBL4507305, “Data for DCP probe TP-024” (2021)

Key:
[1] = molecular target: Receptor tyrosine-protein kinase erbB-2 (Homo sapiens) (UniProt P04626); settings: Compound concentration 1000.0 nM
[2] = molecular target: LIM domain kinase 1 (Homo sapiens) (UniProt P53667); settings: Compound concentration 1000.0 nM
[3] = molecular target: Mitogen-activated protein kinase 13 (Homo sapiens) (UniProt O15264); settings: Compound concentration 1000.0 nM
[4] = molecular target: Vascular endothelial growth factor receptor 1 (Homo sapiens) (UniProt P17948); settings: Compound concentration 1000.0 nM
Chain of Vascular endothelial growth factor receptor 1 (Homo sapiens) (P17948 whole entry): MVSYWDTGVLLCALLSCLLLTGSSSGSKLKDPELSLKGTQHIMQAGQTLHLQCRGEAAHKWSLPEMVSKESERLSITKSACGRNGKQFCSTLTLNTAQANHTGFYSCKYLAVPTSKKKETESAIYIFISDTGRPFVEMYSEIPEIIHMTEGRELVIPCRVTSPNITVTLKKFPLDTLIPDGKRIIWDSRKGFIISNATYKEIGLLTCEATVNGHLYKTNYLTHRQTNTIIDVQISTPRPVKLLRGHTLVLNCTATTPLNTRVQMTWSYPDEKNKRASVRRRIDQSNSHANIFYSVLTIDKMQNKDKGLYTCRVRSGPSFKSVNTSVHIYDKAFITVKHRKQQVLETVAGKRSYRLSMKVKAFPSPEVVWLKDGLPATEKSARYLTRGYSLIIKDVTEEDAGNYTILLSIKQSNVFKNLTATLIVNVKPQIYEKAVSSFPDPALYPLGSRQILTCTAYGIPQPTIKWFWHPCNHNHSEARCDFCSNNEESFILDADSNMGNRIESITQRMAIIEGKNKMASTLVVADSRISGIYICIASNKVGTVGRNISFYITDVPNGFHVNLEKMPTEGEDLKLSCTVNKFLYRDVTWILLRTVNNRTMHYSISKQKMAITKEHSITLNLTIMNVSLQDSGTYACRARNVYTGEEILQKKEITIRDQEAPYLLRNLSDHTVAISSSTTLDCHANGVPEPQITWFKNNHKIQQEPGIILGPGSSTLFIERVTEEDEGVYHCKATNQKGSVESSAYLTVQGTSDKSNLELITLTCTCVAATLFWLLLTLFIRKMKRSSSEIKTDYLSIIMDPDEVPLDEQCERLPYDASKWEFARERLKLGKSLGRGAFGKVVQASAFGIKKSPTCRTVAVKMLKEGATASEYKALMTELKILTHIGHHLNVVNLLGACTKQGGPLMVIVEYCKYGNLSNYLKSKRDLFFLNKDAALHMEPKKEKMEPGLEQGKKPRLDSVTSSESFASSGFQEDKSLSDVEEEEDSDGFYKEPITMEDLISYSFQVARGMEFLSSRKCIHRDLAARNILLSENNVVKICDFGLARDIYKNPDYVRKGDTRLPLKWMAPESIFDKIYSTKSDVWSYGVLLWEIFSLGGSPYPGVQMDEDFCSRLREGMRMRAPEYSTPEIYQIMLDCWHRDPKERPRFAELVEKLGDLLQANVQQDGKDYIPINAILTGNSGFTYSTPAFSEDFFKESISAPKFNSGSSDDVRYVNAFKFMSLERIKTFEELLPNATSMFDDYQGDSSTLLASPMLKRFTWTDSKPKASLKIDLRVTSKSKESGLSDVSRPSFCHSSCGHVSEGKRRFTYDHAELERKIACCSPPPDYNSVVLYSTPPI

[5] = molecular target: Activin receptor type-1-like (Homo sapiens) (UniProt P37023); settings: Compound concentration 1000.0 nM
[6] = molecular target: Serine/threonine-protein kinase PAK 6 (Homo sapiens) (UniProt Q9NQU5); settings: Compound concentration 1000.0 nM
[7] = molecular target: SRSF protein kinase 3 (Homo sapiens) (UniProt Q9UPE1); settings: Compound concentration 1000.0 nM
[8] = molecular target: Tyrosine-protein kinase TXK (Homo sapiens) (UniProt P42681); settings: Compound concentration 1000.0 nM
[9] = system: Receptor-type tyrosine-protein kinase FLT3 (Homo sapiens), P36888 [R834Q]; settings: Compound concentration 1000.0 nM
[10] = molecular target: Serine/threonine-protein kinase SBK1 (Homo sapiens) (UniProt Q52WX2); settings: Compound concentration 1000.0 nM
[11] = molecular target: Receptor-interacting serine/threonine-protein kinase 4 (Homo sapiens) (UniProt P57078); settings: Compound concentration 1000.0 nM
Chain of Receptor-interacting serine/threonine-protein kinase 4 (Homo sapiens) (P57078 whole entry): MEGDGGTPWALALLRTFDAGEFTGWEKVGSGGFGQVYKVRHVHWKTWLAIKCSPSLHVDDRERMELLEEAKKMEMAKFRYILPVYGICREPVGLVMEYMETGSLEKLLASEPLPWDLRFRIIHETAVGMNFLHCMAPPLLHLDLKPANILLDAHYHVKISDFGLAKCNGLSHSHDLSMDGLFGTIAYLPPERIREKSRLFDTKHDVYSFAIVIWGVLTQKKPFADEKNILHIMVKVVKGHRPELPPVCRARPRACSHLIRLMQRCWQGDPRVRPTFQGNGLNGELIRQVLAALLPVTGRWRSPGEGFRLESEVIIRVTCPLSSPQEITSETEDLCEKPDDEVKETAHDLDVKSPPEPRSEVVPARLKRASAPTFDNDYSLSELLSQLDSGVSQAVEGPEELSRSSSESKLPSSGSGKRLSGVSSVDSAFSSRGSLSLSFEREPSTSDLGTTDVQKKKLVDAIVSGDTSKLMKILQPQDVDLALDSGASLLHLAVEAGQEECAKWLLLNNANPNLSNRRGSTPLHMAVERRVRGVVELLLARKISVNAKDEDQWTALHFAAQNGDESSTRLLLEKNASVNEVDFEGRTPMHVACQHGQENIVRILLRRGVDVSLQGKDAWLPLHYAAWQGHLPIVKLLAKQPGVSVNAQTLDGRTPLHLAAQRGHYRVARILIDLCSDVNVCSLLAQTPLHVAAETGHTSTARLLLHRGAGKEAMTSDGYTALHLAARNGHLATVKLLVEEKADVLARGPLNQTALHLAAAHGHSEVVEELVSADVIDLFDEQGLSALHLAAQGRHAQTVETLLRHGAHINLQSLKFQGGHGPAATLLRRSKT

[12] = molecular target: Protein-tyrosine kinase 2-beta (Homo sapiens) (UniProt Q14289); settings: Compound concentration 1000.0 nM
[13] = molecular target: Receptor-type tyrosine-protein kinase FLT3 (Homo sapiens) (UniProt P36888); settings: Compound concentration 1000.0 nM
[14] = molecular target: Calcium/calmodulin-dependent protein kinase kinase 1 (Homo sapiens) (UniProt Q8N5S9); settings: Compound concentration 1000.0 nM
[15] = system: Mast/stem cell growth factor receptor Kit (Homo sapiens), P10721 [D816H]; settings: Compound concentration 1000.0 nM
[16] = system: Epidermal growth factor receptor (Homo sapiens), P00533 [UNDEFINED MUTATION]; settings: Compound concentration 1000.0 nM
[17] = molecular target: Insulin-like growth factor 1 receptor (Homo sapiens) (UniProt P08069); settings: Compound concentration 1000.0 nM
[18] = molecular target: Histamine H2 receptor (Homo sapiens) (UniProt P25021); settings: Compound concentration 10.0 uM
[19] = system: Receptor-type tyrosine-protein kinase FLT3 (Homo sapiens), P36888 [D835H]; settings: Compound concentration 1000.0 nM
[20] = molecular target: Serine/threonine-protein kinase PLK3 (Homo sapiens) (UniProt Q9H4B4); settings: Compound concentration 1000.0 nM
[21] = molecular target: cAMP-dependent protein kinase catalytic subunit alpha (Homo sapiens) (UniProt P17612); settings: Compound concentration 1000.0 nM
[22] = molecular target: Mitogen-activated protein kinase 8 (Homo sapiens) (UniProt P45983); settings: Compound concentration 1000.0 nM
Chain of Mitogen-activated protein kinase 8 (Homo sapiens) (P45983 whole entry): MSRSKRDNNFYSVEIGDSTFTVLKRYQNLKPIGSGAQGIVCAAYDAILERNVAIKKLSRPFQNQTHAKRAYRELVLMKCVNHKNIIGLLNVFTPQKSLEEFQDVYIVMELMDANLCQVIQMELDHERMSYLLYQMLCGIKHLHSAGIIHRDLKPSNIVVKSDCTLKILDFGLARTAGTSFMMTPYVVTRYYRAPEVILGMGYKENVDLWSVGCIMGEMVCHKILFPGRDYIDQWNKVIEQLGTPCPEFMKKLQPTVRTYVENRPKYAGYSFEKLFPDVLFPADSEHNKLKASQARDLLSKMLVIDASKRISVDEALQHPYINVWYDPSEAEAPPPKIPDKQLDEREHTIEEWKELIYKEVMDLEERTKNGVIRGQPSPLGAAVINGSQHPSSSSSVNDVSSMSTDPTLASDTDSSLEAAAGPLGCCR

[23] = molecular target: Histamine H1 receptor (Homo sapiens) (UniProt P35367); settings: Compound concentration 10.0 uM
[24] = molecular target: RAF proto-oncogene serine/threonine-protein kinase (Homo sapiens) (UniProt P04049); settings: Compound concentration 1000.0 nM
[25] = molecular target: Serine/threonine-protein kinase 16 (Homo sapiens) (UniProt O75716); settings: Compound concentration 1000.0 nM
[26] = system: Epidermal growth factor receptor (Homo sapiens), P00533 [L858R,T790M]; settings: Compound concentration 1000.0 nM
[27] = molecular target: Tyrosine-protein kinase receptor UFO (Homo sapiens) (UniProt P30530); settings: Compound concentration 1000.0 nM
[28] = molecular target: Serine/threonine-protein kinase TAO3 (Homo sapiens) (UniProt Q9H2K8); settings: Compound concentration 1000.0 nM
[29] = molecular target: Inhibitor of nuclear factor kappa-B kinase subunit beta (Homo sapiens) (UniProt O14920); settings: Compound concentration 1000.0 nM
[30] = system: Hepatocyte growth factor receptor (Homo sapiens), P08581 [Y1235D]; settings: Compound concentration 1000.0 nM
[31] = molecular target: Serine/threonine-protein kinase haspin (Homo sapiens) (UniProt Q8TF76); settings: Compound concentration 1000.0 nM
[32] = molecular target: 5-hydroxytryptamine receptor 3A (Homo sapiens) (UniProt P46098); settings: Compound concentration 10.0 uM
Chain of 5-hydroxytryptamine receptor 3A (Homo sapiens) (P46098 whole entry): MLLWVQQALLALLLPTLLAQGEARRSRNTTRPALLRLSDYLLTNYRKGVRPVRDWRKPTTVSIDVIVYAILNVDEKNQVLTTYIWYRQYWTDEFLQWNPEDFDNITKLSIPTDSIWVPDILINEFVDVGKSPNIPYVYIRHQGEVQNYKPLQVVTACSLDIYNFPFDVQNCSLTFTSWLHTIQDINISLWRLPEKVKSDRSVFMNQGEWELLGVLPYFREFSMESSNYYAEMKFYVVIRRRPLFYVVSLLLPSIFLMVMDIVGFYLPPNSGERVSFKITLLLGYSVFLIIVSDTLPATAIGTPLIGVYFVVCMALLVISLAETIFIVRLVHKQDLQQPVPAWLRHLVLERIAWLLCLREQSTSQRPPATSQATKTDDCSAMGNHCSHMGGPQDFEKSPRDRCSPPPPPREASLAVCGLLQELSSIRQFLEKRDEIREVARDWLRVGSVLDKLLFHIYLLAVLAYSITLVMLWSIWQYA

[33] = molecular target: Mitogen-activated protein kinase kinase kinase 2 (Homo sapiens) (UniProt Q9Y2U5); settings: Compound concentration 1000.0 nM
Chain of Mitogen-activated protein kinase kinase kinase 2 (Homo sapiens) (Q9Y2U5 whole entry): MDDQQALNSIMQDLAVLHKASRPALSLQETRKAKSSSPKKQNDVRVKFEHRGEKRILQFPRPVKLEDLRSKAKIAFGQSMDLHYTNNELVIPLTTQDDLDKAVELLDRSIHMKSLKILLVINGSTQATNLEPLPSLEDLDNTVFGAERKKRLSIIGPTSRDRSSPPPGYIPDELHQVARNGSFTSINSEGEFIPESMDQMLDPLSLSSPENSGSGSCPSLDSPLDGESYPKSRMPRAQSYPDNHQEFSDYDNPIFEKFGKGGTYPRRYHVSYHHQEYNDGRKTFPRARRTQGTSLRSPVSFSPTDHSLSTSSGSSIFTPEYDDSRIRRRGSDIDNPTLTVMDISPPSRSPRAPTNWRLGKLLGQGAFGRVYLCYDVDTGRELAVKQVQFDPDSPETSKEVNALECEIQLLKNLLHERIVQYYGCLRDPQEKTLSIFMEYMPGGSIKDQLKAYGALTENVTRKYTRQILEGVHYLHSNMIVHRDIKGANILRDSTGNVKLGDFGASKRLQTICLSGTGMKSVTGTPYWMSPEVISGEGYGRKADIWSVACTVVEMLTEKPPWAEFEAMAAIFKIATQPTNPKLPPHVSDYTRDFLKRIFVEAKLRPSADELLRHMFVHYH

[34] = molecular target: Serine/threonine-protein kinase SIK2 (Homo sapiens) (UniProt Q9H0K1); settings: Compound concentration 1000.0 nM
[35] = system: Proto-oncogene tyrosine-protein kinase receptor Ret (Homo sapiens), P07949 [V804L]; settings: Compound concentration 1000.0 nM
[36] = molecular target: Mitogen-activated protein kinase 7 (Homo sapiens) (UniProt Q13164); settings: Compound concentration 1000.0 nM
[37] = molecular target: Serine/threonine-protein kinase 10 (Homo sapiens) (UniProt O94804); settings: Compound concentration 1000.0 nM
[38] = molecular target: Serine/threonine-protein kinase 38-like (Homo sapiens) (UniProt Q9Y2H1); settings: Compound concentration 1000.0 nM
[39] = molecular target: Cyclin-dependent kinase-like 1 (Homo sapiens) (UniProt Q00532); settings: Compound concentration 1000.0 nM
[40] = molecular target: Serine/threonine-protein kinase STK11 (Homo sapiens) (UniProt Q15831); settings: Compound concentration 1000.0 nM
[41] = molecular target: Tyrosine-protein kinase JAK1 (Homo sapiens) (UniProt P23458); settings: Compound concentration 1000.0 nM
Chain of Tyrosine-protein kinase JAK1 (Homo sapiens) (P23458 whole entry): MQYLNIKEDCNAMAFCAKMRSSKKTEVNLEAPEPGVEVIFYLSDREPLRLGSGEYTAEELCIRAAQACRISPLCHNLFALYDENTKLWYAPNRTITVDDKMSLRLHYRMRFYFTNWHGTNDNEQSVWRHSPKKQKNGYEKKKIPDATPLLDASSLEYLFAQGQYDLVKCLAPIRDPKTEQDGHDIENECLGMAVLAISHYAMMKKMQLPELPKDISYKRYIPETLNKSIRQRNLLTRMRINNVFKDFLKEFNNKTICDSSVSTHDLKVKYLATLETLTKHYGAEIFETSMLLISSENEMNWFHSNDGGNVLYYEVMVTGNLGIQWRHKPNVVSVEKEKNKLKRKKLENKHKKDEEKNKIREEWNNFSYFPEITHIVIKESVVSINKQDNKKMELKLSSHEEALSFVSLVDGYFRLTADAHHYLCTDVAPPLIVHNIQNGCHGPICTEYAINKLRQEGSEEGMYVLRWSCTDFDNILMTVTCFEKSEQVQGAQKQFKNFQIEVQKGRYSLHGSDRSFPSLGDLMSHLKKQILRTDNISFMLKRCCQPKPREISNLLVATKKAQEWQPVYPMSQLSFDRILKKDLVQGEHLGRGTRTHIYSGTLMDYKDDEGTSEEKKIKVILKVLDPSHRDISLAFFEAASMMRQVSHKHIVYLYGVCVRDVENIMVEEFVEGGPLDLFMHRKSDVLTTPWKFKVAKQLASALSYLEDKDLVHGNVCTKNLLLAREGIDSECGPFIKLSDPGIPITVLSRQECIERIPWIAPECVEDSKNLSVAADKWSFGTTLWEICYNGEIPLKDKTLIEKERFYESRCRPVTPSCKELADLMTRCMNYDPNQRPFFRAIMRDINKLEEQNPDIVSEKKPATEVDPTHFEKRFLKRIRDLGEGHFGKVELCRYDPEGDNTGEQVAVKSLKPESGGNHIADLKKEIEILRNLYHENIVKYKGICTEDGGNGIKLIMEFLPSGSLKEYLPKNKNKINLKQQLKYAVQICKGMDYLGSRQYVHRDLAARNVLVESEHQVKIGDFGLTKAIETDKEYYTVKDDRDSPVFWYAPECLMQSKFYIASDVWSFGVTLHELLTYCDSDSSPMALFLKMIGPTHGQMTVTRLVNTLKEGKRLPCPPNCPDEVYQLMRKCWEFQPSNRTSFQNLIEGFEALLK

[42] = molecular target: RAC-gamma serine/threonine-protein kinase (Homo sapiens) (UniProt Q9Y243); settings: Compound concentration 1000.0 nM
[43] = molecular target: Fibroblast growth factor receptor 2 (Homo sapiens) (UniProt P21802); settings: Compound concentration 1000.0 nM
[44] = system: Mast/stem cell growth factor receptor Kit (Homo sapiens), P10721 [V559D,T670I]; settings: Compound concentration 1000.0 nM
[45] = system: Mast/stem cell growth factor receptor Kit (Homo sapiens), P10721 [V559D]; settings: Compound concentration 1000.0 nM

Compound Cc1cc(-n2nc(Cc3cc(F)cc(C(F)(F)F)c3)nc2C)ccc1C(N)=O [TP-024] has a residual activity [1] of 99%, a residual activity [2] of 100% and a residual activity [3] of 100%. It also gave a residual activity [4] of 100%, a residual activity [5] of 100% and a residual activity [6] of 100%. It also gave a residual activity [7] of 100%, a residual activity [8] of 84% and a residual activity [9] of 77%. It also gave a residual activity [10] of 98%, a residual activity [11] of 95% and a residual activity [12] of 100%. The residual activity [13] was 100%, the residual activity [14] was 100% and the residual activity [15] was 100%. For the same compound, the residual activity [16] was 100%, the residual activity [17] was 98% and the inhibition [18] was 6.28%. It also gave a residual activity [19] of 100%, a residual activity [20] of 100% and a residual activity [21] of 100%. For the same compound, the residual activity [22] was 78%, the inhibition [23] was 8.06% and the residual activity [24] was 87%. It also gave a residual activity [25] of 91%, a residual activity [26] of 90% and a residual activity [27] of 99%. For the same compound, the residual activity [28] was 83%, the residual activity [29] was 92% and the residual activity [30] was 90%. It also gave a residual activity [31] of 100%, an inhibition [32] of 5.45% and a residual activity [33] of 100%. It also gave a residual activity [34] of 100%, a residual activity [35] of 100% and a residual activity [36] of 100%. For the same compound, the residual activity [37] was 100%, the residual activity [38] was 49% and the residual activity [39] was 71%. For the same compound, the residual activity [40] was 100%, the residual activity [41] was 100% and the residual activity [42] was 100%. The residual activity [43] was 100%, the residual activity [44] was 100% and the residual activity [45] was 83%.

With Cc1nc(Cc2cccc(C(F)(F)F)c2)sc1-c1ccc(C(N)=O)nc1 [TP-024n] the residual activity [1] was 100%, the residual activity [2] was 100% and the residual activity [3] was 99%. It also gave a residual activity [4] of 100%, a residual activity [5] of 99% and a residual activity [6] of 92%. For the same compound, the residual activity [7] was 100%, the residual activity [8] was 70% and the residual activity [9] was 92%. It also gave a residual activity [10] of 100%, a residual activity [11] of 83% and a residual activity [12] of 100%. The residual activity [13] was 93%, the residual activity [14] was 98% and the residual activity [15] was 100%. The residual activity [16] was 100%, the residual activity [17] was 100% and the inhibition [18] was 6.05%. For the same compound, the residual activity [19] was 100%, the residual activity [20] was 94% and the residual activity [21] was 75%. For the same compound, the residual activity [22] was 90%, the inhibition [23] was 9.3% and the residual activity [24] was 70%. The residual activity [25] was 100%, the residual activity [26] was 87% and the residual activity [27] was 100%. The residual activity [28] was 83%, the residual activity [29] was 72% and the residual activity [30] was 91%. It also gave a residual activity [31] of 100%, an inhibition [32] of 4.72% and a residual activity [33] of 100%. The residual activity [34] was 90%, the residual activity [35] was 86% and the residual activity [36] was 88%. The residual activity [37] was 100%, the residual activity [38] was 44% and the residual activity [39] was 85%. For the same compound, the residual activity [40] was 100%, the residual activity [41] was 92% and the residual activity [42] was 92%. The residual activity [43] was 100%, the residual activity [44] was 91% and the residual activity [45] was 100%.
